Results: ChEMBL document CHEMBL1201862, “PubChem BioAssay data set” (2004)
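Tested at 5 concentrations; 48 h exposure; 96-well plates; endpoints linearly interpolated, else capped at highest concentration. GI50 marks 50% less growth.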 Calls of active or inactive are those of the source. Cut-off read from the data, not from the text of the source: active = GI50 up to about 1.1 µM and inactive = higher.

How the values were obtained:
Test in all cases: DTP human tumour cell line panel, 48 h
[1] = tested on: 786-0
[2] = tested on: EKVX
[3] = tested on: IGROV-1
[4] = tested on: KM12
[5] = tested on: M14
[6] = tested on: MCF7
[7] = tested on: MDA-N
[8] = tested on: OVCAR-3
[9] = tested on: OVCAR-5
[10] = tested on: RXF 393
[11] = tested on: SK-MEL-5
[12] = tested on: SNB-19
[13] = tested on: SNB-75
[14] = tested on: SW-620
[15] = tested on: TK-10
[16] = tested on: U-251
[17] = tested on: UACC-257
[18] = tested on: UACC-62
[19] = tested on: NCI-H522
[20] = tested on: HCC 2998

Measured: GI50

Cn1c(=O)oc2cc(C(=S)N3CCC(Cc4ccccc4)CC3)ccc21
inactive: [1] > 100 µM | [2] > 100 µM | [3] > 100 µM | [4] > 100 µM | [5] > 100 µM | [6] > 100 µM | [7] > 100 µM | [8] > 100 µM | [9] > 100 µM | [10] > 100 µM | [11] 51.4 µM | [12] > 100 µM | [13] 55.6 µM | [14] > 100 µM | [15] > 100 µM | [16] 64.7 µM | [17] > 100 µM | [18] > 100 µM

CCOC(=O)c1nc2ccc(C(F)(F)F)cc2nc1Nc1ccc(F)cc1
inactive: [1] 45.3 µM | [3] 87.7 µM | [4] > 100 µM | [5] > 100 µM | [6] > 100 µM | [7] > 100 µM | [19] 54.6 µM | [8] > 100 µM | [9] > 100 µM | [10] 38.5 µM | [11] > 10 µM | [12] 43.9 µM | [13] 32.1 µM | [14] > 100 µM | [15] 92.3 µM | [17] > 100 µM | [18] > 100 µM

COc1ccc2c3c1O[C@H]1C(=O)C=CC4(n5[nH]c(=O)n(-c6ccccc6)c5=O)C(C2)N(C)CCC314 (stereo not given in full)
inactive: [1] > 100 µM | [2] > 100 µM | [3] > 100 µM | [4] > 100 µM | [5] > 100 µM | [6] > 100 µM | [7] > 100 µM | [19] > 100 µM | [8] > 100 µM | [9] > 100 µM | [11] > 100 µM | [12] > 100 µM | [14] > 100 µM | [15] > 100 µM | [16] > 100 µM | [18] > 100 µM

COC(=O)[C@H](COC(C)(C)C)NC(=O)N[C@H](C)c1ccccc1
inactive: [1] > 100 µM | [2] > 100 µM | [20] > 100 µM | [3] > 100 µM | [4] > 100 µM | [5] > 100 µM | [6] > 100 µM | [7] > 100 µM | [19] > 100 µM | [8] > 100 µM | [9] > 100 µM | [11] > 100 µM | [12] > 100 µM | [13] > 100 µM | [14] > 100 µM | [15] > 100 µM | [16] > 100 µM | [17] > 100 µM | [18] > 100 µM
